The source of these data is patent US20230416329A1, “A PEPTIDE WITH DISULFIDE BONDS AND INHIBITORY ACTIVITY AGAINST SERINE PROTEASES, DERIVED HYBRID PEPTIDES THEREOF, AND USES THEREOF” (INSTITUTE OF MATERIA MEDICA , CHINESE ACADEMY OF MEDICAL …, priority 2020, published 2023).

In this experiment the target is T1, bovine trypsin (Bos taurus, UniProt P00760).
T1 sequence (P00760 24-246): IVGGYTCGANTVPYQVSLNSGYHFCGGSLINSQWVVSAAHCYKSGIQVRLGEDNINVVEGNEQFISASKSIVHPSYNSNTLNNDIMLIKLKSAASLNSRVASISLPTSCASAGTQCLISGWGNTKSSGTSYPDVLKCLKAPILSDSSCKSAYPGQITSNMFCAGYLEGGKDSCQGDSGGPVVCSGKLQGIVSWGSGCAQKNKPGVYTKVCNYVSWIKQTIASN
Put plainly: Trypsin inhibitory activity of peptides (BApNA hydrolysis, OD405; IC50, Ki, residual activity). The note with it: for pKi: Ki=IC50/(1+S/Km), Km 0.33 mM, read-out: Ki; for pIC50: trypsin 50 nM, BApNA 1.22 mM, read-out: IC50. The experiment is classed as biochemical. A digest of the protocol:
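Trypsin (50 nM final) preincubated with peptides at 37 °C in 50 mM Tris-HCl pH 7.8, 20 mM CaCl2; BApNA added (1.22 mM final), 260 min at 37 °C, then OD405 read. Residual activity from enzyme-only and substrate-only controls; IC50 fitted and converted to Ki via Ki=IC50/(1+S/Km), Km measured separately for BApNA.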

pIC50, pKi: −log10 of the molar value. Read-outs that look alike come from different tables or passages of the source. Bridge positions count the residues as written; N and C are the ends. Square brackets hold non-standard residues; d marks the D form. Peptide text beside a SMILES is read from it. Hyp = O=C(O)[C@@H]1C[C@@H](O)CN1; Abu = CC[C@H](N)C(=O)O

As for `CC[C@H](C)[C@@H]1NC(=O)[C@@H]2CCCN2C(=O)[C@@H]2CCCN2C(=O)[C@H]([C@@H](C)CC)NC(=O)[C@H](CO)NC(=O)[C@H](CCCCN)NC(=O)[C@H]([C@@H](C)O)NC(=O)[C@H](CCC(=O)O)NC(=O)[C@H](CCCNC(=N)N)NC(=O)CNC(=O)[C@@H](N)CSSC[C@@H](C(=O)N[C@@H](Cc2ccccc2)C(=O)O)NC1=O` [BT58] (H-CGRETKSIPPICF-OH; disulfide 1-12; N-terminus and C-terminus assumed), the pKi is 7.52 and the pIC50 is 6.92.
Consider `CC[C@H](C)[C@@H]1NC(=O)[C@@H]2CCCN2C(=O)[C@@H]2CCCN2C(=O)[C@H]([C@@H](C)CC)NC(=O)[C@H](CO)NC(=O)[C@H](CCCCN)NC(=O)[C@H]([C@@H](C)O)NC(=O)CNC(=O)[C@H](CCCNC(=N)N)NC(=O)CNC(=O)[C@@H](N)CSSC[C@@H](C(=O)N[C@@H](Cc2ccccc2)C(=O)O)NC1=O` [BT60] (H-CGRGTKSIPPICF-OH; disulfide 1-12), for which the “inhibitory activity against trypsin (in words)” value (shortened to “inhibitory activity”) was “excellent trypsin inhibitory activities” and the pKi is 7.05.
For `CC[C@H](C)[C@@H]1NC(=O)[C@H](CO)NC(=O)[C@H](CCCNC(=N)N)NC(=O)[C@H]([C@@H](C)O)NC(=O)[C@@H](NC(=O)[C@@H](N)CCCNC(=N)N)CSSC[C@@H](C(=O)N[C@@H](Cc2c[nH]c3ccccc23)C(=O)O)NC(=O)[C@H](Cc2c[nH]cn2)NC(=O)[C@@H]2CCCN2C(=O)[C@@H]2CCCN2C1=O` [BT61] (H-RCTRSIPPHCW-OH; disulfide 2-10; N-terminus and C-terminus assumed), the pKi was 6.72.
For `CC[C@H](C)[C@@H]1NC(=O)[C@H](CO)NC(=O)[C@H](CCCCN)NC(=O)[C@H]([C@@H](C)O)NC(=O)[C@@H](NC(=O)[C@@H](N)CCCNC(=N)N)CSSC[C@@H](C(=O)N[C@@H](Cc2ccccc2)C(=O)O)NC(=O)[C@H](Cc2c[nH]cn2)NC(=O)[C@@H]2CCCN2C(=O)[C@@H]2CCCN2C1=O` [BT62] (H-RCTKSIPPHCF-OH; disulfide 2-10; N-terminus and C-terminus assumed), the pKi was 8.00 and the pIC50 was 7.15.
In the same order, the values of `CC[C@H](C)[C@@H]1NC(=O)[C@H](CO)NC(=O)[C@H](CCCCN)NC(=O)[C@H]([C@@H](C)O)NC(=O)[C@@H](NC(=O)[C@@H](N)CCCNC(=N)N)CSSC[C@@H](C(=O)N[C@@H](Cc2c[nH]cn2)C(=O)O)NC(=O)[C@H](CCC(N)=O)NC(=O)[C@@H]2CCCN2C(=O)[C@@H]2CCCN2C1=O` [BT63] (H-RCTKSIPPQCH-OH; disulfide 2-10; N-terminus and C-terminus assumed) are 7.70 and 7.05.
Take `CC(C)C[C@@H]1NC(=O)[C@H](CO)NC(=O)[C@H](CCCCN)NC(=O)[C@H]([C@@H](C)O)NC(=O)[C@@H](NC(=O)[C@@H](N)CCCNC(=N)N)CSSC[C@@H](C(=O)N[C@@H](CO)C(=O)O)NC(=O)[C@H](CCC(N)=O)NC(=O)[C@@H]2CCCN2C(=O)[C@@H]2CCCN2C1=O` [BT65] (H-RCTKSLPPQCS-OH; disulfide 2-10; C-terminus assumed): the “inhibitory activity” value is on record as “excellent trypsin inhibitory activities” and the pKi was 6.89.
Regarding `CC[C@H](C)[C@@H]1NC(=O)[C@@H]2CCCN2C(=O)[C@@H]2CCCN2C(=O)[C@H]([C@@H](C)CC)NC(=O)[C@H](CO)NC(=O)[C@H](CCCCN)NC(=O)[C@H]([C@@H](C)O)NC(=O)[C@H](C)NC(=O)[C@H](CCCNC(=N)N)NC(=O)[C@@H]2CCCN2C(=O)[C@@H](N)CSSC[C@@H](C(=O)N[C@@H](Cc2ccccc2)C(=O)O)NC1=O` [BT66] (H-CPRATKSIPPICF-OH; disulfide 1-12; C-terminus assumed), the “inhibitory activity” value is recorded as “higher trypsin inhibitory activities”, the pKi was 8.00 and the pIC50 is 7.22. For the same compound, the “inhibitory activity” value (listed as SEQ ID NO: 66) is given as “excellent trypsin inhibitory activities”. The Residual trypsin activity (peptide 0.000098 μM) turned out to be 107.0 ± 6.2%. Moreover, under “peptide 0.00098 μM”, the Residual trypsin activity came to 104.7 ± 2.1%. Further, the Residual trypsin activity (peptide 0.0098 μM) is given as 106.2 ± 3.4%. The Residual trypsin activity (peptide 0.0488 μM) is reported as 66.8 ± 8.2%. Moreover, where the note is “peptide 0.0585 μM”, the Residual trypsin activity was 55.7 ± 2.4%. Besides, the Residual trypsin activity (peptide 0.0780 μM) is given as 13.9 ± 4.2%. Where the note is “peptide 0.098 μM”, the Residual trypsin activity stood at 4.8 ± 0.7%. Moreover, where the note is “peptide 0.98 μM”, the Residual trypsin activity came out at 0.1 ± 0.0%. In addition, under “peptide 9.76 μM”, the Residual trypsin activity was 0.1 ± 0.0%.
Regarding `CC[C@H](C)[C@@H]1NC(=O)[C@@H]2CCCN2C(=O)[C@@H]2CCCN2C(=O)[C@H]([C@@H](C)CC)NC(=O)[C@H](CO)NC(=O)[C@H](CCCCN)NC(=O)[C@H]([C@@H](C)O)NC(=O)[C@H](C)NC(=O)[C@H](CCCNC(=N)N)NC(=O)[C@H](C)NC(=O)[C@@H](N)CSSC[C@@H](C(=O)N[C@@H](Cc2ccccc2)C(=O)O)NC1=O` [BT67] (H-CARATKSIPPICF-OH; disulfide 1-12), the “inhibitory activity” value is “higher trypsin inhibitory activities”, the negative logarithm of the Ki (pKi) is 8.00 and the pIC50 is 7.30. The “inhibitory activity” value (listed as SEQ ID NO: 67) is reported as “excellent trypsin inhibitory activities”. For the same compound, the Residual trypsin activity (peptide 0.000098 μM) was 107.0 ± 5.5%. Moreover, the Residual trypsin activity (peptide 0.00098 μM) was 104.4 ± 3.9%. The Residual trypsin activity (peptide 0.0098 μM) was determined as 102.0 ± 2.4%. Besides, the Residual trypsin activity (peptide 0.0488 μM) came out at 49.6 ± 2.8%. In addition, the Residual trypsin activity (peptide 0.0585 μM) was 39.9 ± 1.7%. The Residual trypsin activity (peptide 0.07317 μM) is on record as 8.1 ± 2.5%. Moreover, the Residual trypsin activity (peptide 0.098 μM) came to 1.5 ± 0.3%. Besides, the Residual trypsin activity (peptide 0.98 μM) came out at 0.1 ± 0.2%. Further, the Residual trypsin activity (peptide 9.76 μM) worked out at 0.1 ± 0.1%.
`CC[C@H](C)[C@@H]1NC(=O)[C@@H]2CCCN2C(=O)[C@@H]2C[C@@H](O)CN2C(=O)[C@H]([C@@H](C)CC)NC(=O)[C@H](CO)NC(=O)[C@H](CCCCN)NC(=O)[C@H]([C@@H](C)O)NC(=O)[C@H](C)NC(=O)[C@H](CCCNC(=N)N)NC(=O)[C@H](C)NC(=O)[C@@H](N)CSSC[C@@H](C(=O)N[C@@H](Cc2ccccc2)C(=O)O)NC1=O` [BT69] (H-CARATKSI[Hyp]PICF-OH; disulfide 1-12; C-terminus assumed): the “inhibitory activity” value is recorded as “excellent trypsin inhibitory activities”, the negative-log Ki (pKi) is 8.00 and the pIC50 was 7.22.
As for `CC[C@H](C)[C@@H]1NC(=O)[C@@H]2C[C@@H](O)CN2C(=O)[C@@H]2CCCN2C(=O)[C@H]([C@@H](C)CC)NC(=O)[C@H](CO)NC(=O)[C@H](CCCCN)NC(=O)[C@H]([C@@H](C)O)NC(=O)[C@H](C)NC(=O)[C@H](CCCNC(=N)N)NC(=O)[C@H](C)NC(=O)[C@@H](N)CSSC[C@@H](C(=O)N[C@@H](Cc2ccccc2)C(=O)O)NC1=O` [BT70] (H-CARATKSIP[Hyp]ICF-OH; disulfide 1-12; C-terminus assumed), the “inhibitory activity” value was “excellent trypsin inhibitory activities” and the pKi was 7.52.
For `CC[C@H](C)[C@@H]1NC(=O)[C@@H]2CCCN2C(=O)[C@@H]2CCCN2C(=O)[C@H]([C@@H](C)CC)NC(=O)[C@H](CO)NC(=O)[C@H](CCCCN)NC(=O)[C@H]([C@@H](C)O)NC(=O)[C@H](C)NC(=O)[C@H](CCCNC(=N)N)NC(=O)[C@H](C(C)C)NC(=O)[C@@H](N)CSSC[C@@H](C(=O)N[C@@H](Cc2ccccc2)C(=O)O)NC1=O` [BT71] (H-CVRATKSIPPICF-OH; disulfide 1-12; N-terminus and C-terminus assumed), the “inhibitory activity” value is “excellent trypsin inhibitory activities”, the pKi was 7.70 and the pIC50 was 6.96.
As for `CC[C@H](C)[C@@H]1NC(=O)[C@@H]2CCCN2C(=O)[C@@H]2CCCN2C(=O)[C@H]([C@@H](C)CC)NC(=O)[C@H](CO)NC(=O)[C@H](CCCCN)NC(=O)[C@H]([C@@H](C)O)NC(=O)[C@H](C)NC(=O)[C@H](CCCNC(=N)N)NC(=O)[C@H](CC(C)C)NC(=O)[C@@H](N)CSSC[C@@H](C(=O)N[C@@H](Cc2ccccc2)C(=O)O)NC1=O` [BT72] (H-CLRATKSIPPICF-OH; disulfide 1-12; N-terminus and C-terminus assumed), the pKi is 7.52 and the pIC50 was 6.89.
The corresponding values for `CC[C@H](C)[C@@H]1NC(=O)[C@@H](N)CSSC[C@@H](C(=O)N[C@@H](Cc2ccccc2)C(=O)O)NC(=O)[C@H]([C@@H](C)CC)NC(=O)[C@@H]2CCCN2C(=O)[C@@H]2CCCN2C(=O)[C@H]([C@@H](C)CC)NC(=O)[C@H](CO)NC(=O)[C@H](CCCCN)NC(=O)[C@H]([C@@H](C)O)NC(=O)[C@H](C)NC(=O)[C@H](CCCNC(=N)N)NC1=O` [BT73] (H-CIRATKSIPPICF-OH; disulfide 1-12; N-terminus and C-terminus assumed) are 7.52 and 6.92.
Consider `CC[C@@H]1NC(=O)[C@@H](N)CSSC[C@@H](C(=O)N[C@@H](Cc2ccccc2)C(=O)O)NC(=O)[C@H]([C@@H](C)CC)NC(=O)[C@@H]2CCCN2C(=O)[C@@H]2CCCN2C(=O)[C@H]([C@@H](C)CC)NC(=O)[C@H](CO)NC(=O)[C@H](CCCCN)NC(=O)[C@H]([C@@H](C)O)NC(=O)[C@H](C)NC(=O)[C@H](CCCNC(=N)N)NC1=O` [BT74] (H-C[Abu]RATKSIPPICF-OH; disulfide 1-12; N-terminus and C-terminus assumed), for which the “inhibitory activity” value is given as “excellent trypsin inhibitory activities”, the negative-log Ki (pKi) is 7.70 and the pIC50 was 7.05.

For orientation: pKi means the negative decadic logarithm of the Ki, by convention in mol/L. By pIC50 is commonly meant the negative decadic logarithm of the IC50, by convention in mol/L.
